From paper PMC12064818, “A general assay platform to study protein pharmacology using ligand-dependent structural dynamics” (Nature Communications, 2025)
Where two headings read alike, the source gives them in different places.

Experiments:
P. pyralis FLuc = P. pyralis FLuc (Photinus pyralis, UniProt P08659); assay: FLuc enzymatic luminescence assay, P. pyralis FLuc; assay type: biochemical; details: FLuc enzymatic assay; for IC50: read-out: IC50 or SDR50 (mM) FLuc E
Method: The enzyme activity of FLuc-N-HiBiT, FLuc-C-HiBiT, and FLuc-C-NLuc was measured similar to P. pyralis firefly luciferase (FLuc) as previously described. […] Compounds and controls were added to each plate as described in Supplementary Data 8 with a Hornet pintool system (Wako Automation). Compounds were incubated with respective enzymes for 30–60 min at room temperature protected from light and covered by solid metal lid to prevent evaporation. […] Luciferin was incubated with FLuc enzyme for 5 min before FLuc activity was then measured on a ViewLux CCD imager (PerkinElmer), with exposure times up to ten seconds with medium to high gain settings. Data were normalized to average no enzyme control as 100% enzyme inhibition and average DMSO neutral control. See Supplementary Table 4 for additional details.
Assays were run in the presence (solid symbols) or absence
(open symbols) of 10 µM ATP. Corresponding SMIL E S for NC GC IDs and source data are provided in
Supplementary Data 3 and as a Source Data file. 10
Supplementary Table 4. Protocol for Firefly luciferase (FLuc) and NanoLuc (NLuc) enzymatic
Supplementary Table 4: Protocol for Firefly luciferase (FLuc) and NanoLuc (NLuc) enzym atic lum inescence assay
Firefly luciferase (FLuc) enzym atic lum inescence assay
Sequence Param eter Value Description
No enzym e control (colum n 1) and enzym e solution (1- 10 nM FLuc enzym e) in FLuc assay
1 Reagent 4 µLbuffer; white/solid bottom , m edium bind, high base plates (Greiner), dispensed with BioRaptr
com pounds transferred to respective colum ns with Pintool
2b Test Com pounds 23 nLconcentration range) in colum ns 5- 48; com pounds transferred to respective wells with
3 Incubation 30 m in Incubate enzym e + com pounds at am bient tem p for 30 m in, protected from light
4 Reagent 3 µLAdd 3 µL of D-luciferin substrate solution to each well (final concentration 10 µM); dispensed
(§1) 5 Detector ViewLux Read plate lum inescence (Exposure = 1- 10 sec; Gain = Medium -high; Speed = Slow;
Dispensing solution was diluted in 1X PBS, pH 7.4. […]

[1] = molecular target: FLuc-C-NLuc (firefly luciferase) (Photinus pyralis, UniProt P08659, form not given/L550V); assay: SDR assay, FLuc-C-NLuc; details: - ATP
Sequence of FLuc-C-NLuc (firefly luciferase) (P08659 2-550 L550V, form open): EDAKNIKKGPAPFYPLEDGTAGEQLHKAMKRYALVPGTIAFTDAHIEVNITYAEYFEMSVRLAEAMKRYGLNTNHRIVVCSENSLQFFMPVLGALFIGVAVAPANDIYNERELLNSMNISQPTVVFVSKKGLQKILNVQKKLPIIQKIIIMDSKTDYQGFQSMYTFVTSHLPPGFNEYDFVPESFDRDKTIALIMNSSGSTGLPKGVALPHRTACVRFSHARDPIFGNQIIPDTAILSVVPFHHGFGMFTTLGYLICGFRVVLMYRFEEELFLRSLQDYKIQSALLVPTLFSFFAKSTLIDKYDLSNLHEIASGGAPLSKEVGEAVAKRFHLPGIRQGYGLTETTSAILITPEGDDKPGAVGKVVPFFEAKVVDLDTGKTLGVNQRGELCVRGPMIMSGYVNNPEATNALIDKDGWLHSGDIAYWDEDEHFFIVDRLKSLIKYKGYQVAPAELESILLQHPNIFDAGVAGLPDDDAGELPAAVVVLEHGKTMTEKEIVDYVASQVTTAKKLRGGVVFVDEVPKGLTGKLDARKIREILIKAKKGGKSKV

NLuc = molecular target: T1, NLuc (Oplophorus gracilirostris, UniProt Q9GV45, A31E/A60N/A81I/F95D/I117V/K70R/L54V/L99Q/M102K/N193R/P142E/Q151K/Q38R/Q45L/V71I/Y165I); assay type: biochemical; details: - ATP
T1 construct: His tag (inferred from IMAC purification); made in house; host or cells: E. coli
T1 sequence (Q9GV45 other isoform, or with tags, fused parts or gaps with the stated changes): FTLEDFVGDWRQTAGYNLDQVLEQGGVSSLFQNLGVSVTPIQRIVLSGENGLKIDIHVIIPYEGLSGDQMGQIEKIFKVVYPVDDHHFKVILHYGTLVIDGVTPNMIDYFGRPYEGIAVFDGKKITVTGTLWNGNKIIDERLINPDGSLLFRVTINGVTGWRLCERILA
Method: Compounds and controls were added to plates as described in Supplementary Data 8. Nano-Glo luciferase assay reagent (Promega) was prepared fresh according to manufacturer’s protocol, filtered and added at 3 μL per well across assay plates with a BioRaptr2 dispenser. Enzyme was incubated with Nano-Glo reagent for 10 min and NLuc luminescence was read on a ViewLux CCD imager (PerkinElmer), with 1 s exposure with medium gain and 2x binning. Data were normalized to average no enzyme control as 100% enzyme inhibition and average DMSO neutral control. See Supplementary Table 4 for additional details.
Supplementary Table 4. […]
Sequence Param eter Value Description […]
as §1
Dispensing solution was diluted in 1X PBS, pH 7.4.
NanoLuc luciferase (NLuc) enzym atic lum inescence assay […]
Nano-Glo luciferase assay reagent (Prom ega, Cat # N1120) prepared according to m anufacturer’s recom m endations,
4 com ponents stored at -30 °C until use, and reagent prepared fresh for each assay.
syringe filter prior to dispense.

[2] = molecular target: FLuc-C-HiBiT (firefly luciferase) (Photinus pyralis, UniProt P08659, form not given/L550V); assay: SDR assay, FLuc-C-HiBiT; details: SDR max. response, clade S
Sequence of FLuc-C-HiBiT (firefly luciferase) (P08659 2-550 L550V, form open): as the sequence (P08659 2-550 L550V, form open) above

Sequence of P. pyralis FLuc (P08659 whole entry): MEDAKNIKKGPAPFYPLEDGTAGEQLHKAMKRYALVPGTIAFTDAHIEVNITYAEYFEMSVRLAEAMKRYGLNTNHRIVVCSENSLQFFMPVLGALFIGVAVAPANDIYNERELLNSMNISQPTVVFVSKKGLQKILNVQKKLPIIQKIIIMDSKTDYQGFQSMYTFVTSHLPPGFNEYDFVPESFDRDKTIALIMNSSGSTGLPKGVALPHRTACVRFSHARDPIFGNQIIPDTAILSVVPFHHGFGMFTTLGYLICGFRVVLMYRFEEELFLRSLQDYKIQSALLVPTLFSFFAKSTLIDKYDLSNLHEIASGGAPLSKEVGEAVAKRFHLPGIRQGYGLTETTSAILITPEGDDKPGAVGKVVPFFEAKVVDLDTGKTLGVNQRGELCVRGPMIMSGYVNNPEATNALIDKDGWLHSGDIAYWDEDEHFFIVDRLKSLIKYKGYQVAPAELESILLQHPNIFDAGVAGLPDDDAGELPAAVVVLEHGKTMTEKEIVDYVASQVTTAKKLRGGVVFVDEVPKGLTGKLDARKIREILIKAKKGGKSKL

| Structure (SMILES) | Efficacy (%) FLuc E (P. pyralis FLuc; Clade S follow-up) | Efficacy (%) FLuc-C-NLuc SDR (-ATP) [1] | Efficacy (%) NLuc (- ATP) (NLuc) | % Activity (max response, + ATP) [2] | % Activity (max response, - ATP) [2] | pIC50 or pSDR50 FLuc E (P. pyralis FLuc) | IC50 (P. pyralis FLuc) | pIC50 or pSDR50 FLuc E (P. pyralis FLuc; Clade S follow-up) | IC50 (P. pyralis FLuc; Clade S follow-up) |
| --- | --- | --- | --- | --- | --- | --- | --- | --- | --- |
| CC(C)CNC(=O)C1CCN(C(=O)c2ncn3c2COC(c2ccc(F)cc2)C3)CC1 (stereo not shown) [NCGC00449805-01] | -24.33% | 0.00% | 0.00% | 48.51% | 0.00% |  |  |  |  |
| O=C(NC1CC1)C1CCN(C(=O)c2ncn3c2COC(c2ccc(F)cc2)C3)CC1 (stereo not shown) [NCGC00449806-01] | -31.66% | 0.00% | 0.00% | 47.67% | 0.00% | 4.91 | 0.0124 mM |  |  |
| O=C(NC1CCCCC1)C1CCN(C(=O)c2ncn3c2COC(c2ccc(F)cc2)C3)CC1 (stereo not shown) [NCGC00449807-01] | -25.30% | 0.00% | 0.00% | 42.77% | 0.00% | 4.96 | 0.0111 mM |  |  |
| CC1CCC(NC(=O)C2CCN(C(=O)c3ncn4c3COC(c3ccc(F)cc3)C4)CC2)CC1 (stereo not shown) [NCGC00449808-01] | -26.58% | 0.00% | 0.00% | 39.00% | 0.00% |  |  |  |  |
| O=C(NC1CCCCCC1)C1CCN(C(=O)c2ncn3c2COC(c2ccc(F)cc2)C3)CC1 (stereo not shown) [NCGC00449809-01] | -10.94% | 0.00% | 0.00% | 14.91% | 0.00% |  |  |  |  |
| O=C(NC1CCCCCCC1)C1CCN(C(=O)c2ncn3c2COC(c2ccc(F)cc2)C3)CC1 (stereo not shown) [NCGC00449810-01] | -21.88% | 0.00% | 0.00% | 34.91% | 0.00% | 4.81 | 0.0157 mM |  |  |
| O=C(NCCC1=CCCCC1)C1CCN(C(=O)c2ncn3c2COC(c2ccc(F)cc2)C3)CC1 (stereo not shown) [NCGC00449811-01] | -41.16% | 0.00% | 0.00% | 50.67% | 0.00% | 5.01 | 0.00988 mM |  |  |
| CCCCNC(=O)C1CCN(C(=O)c2ncn3c2COC(c2ccc(F)cc2)C3)CC1 (stereo not shown) [NCGC00449812-01] | -17.96% | 0.00% | 0.00% | 23.59% | 0.00% | 4.91 | 0.0124 mM |  |  |
| O=C(NCc1ccccc1)C1CCN(C(=O)c2ncn3c2COC(c2ccc(F)cc2)C3)CC1 (stereo not shown) [NCGC00449813-01] | -31.52% | 0.00% | 0.00% | 33.80% | 0.00% | 4.91 | 0.0124 mM |  |  |
| Cc1ccc(CNC(=O)C2CCN(C(=O)c3ncn4c3COC(c3ccc(F)cc3)C4)CC2)cc1 (stereo not shown) [NCGC00449814-01] | -11.84% | 0.00% | 0.00% | 17.69% | 0.00% |  |  |  |  |
| CCc1ccc(CNC(=O)C2CCN(C(=O)c3ncn4c3COC(c3ccc(F)cc3)C4)CC2)cc1 (stereo not shown) [NCGC00449815-01] | -15.14% | 0.00% | 0.00% | 20.00% | 0.00% |  |  |  |  |
| O=C(NCc1ccccc1F)C1CCN(C(=O)c2ncn3c2COC(c2ccc(F)cc2)C3)CC1 (stereo not shown) [NCGC00449818-01] | -20.04% | 0.00% | 0.00% | 27.35% | 0.00% |  |  |  |  |
| O=C(NCc1ccc(F)cc1F)C1CCN(C(=O)c2ncn3c2COC(c2ccc(F)cc2)C3)CC1 (stereo not shown) [NCGC00449819-01] | -12.89% | 0.00% | 0.00% | 18.59% | 0.00% |  |  |  |  |
| O=C(NCc1cc(F)cc(F)c1)C1CCN(C(=O)c2ncn3c2COC(c2ccc(F)cc2)C3)CC1 (stereo not shown) [NCGC00449820-01] | -30.45% | 0.00% | 0.00% | 44.22% | 0.00% | 4.96 | 0.0111 mM |  |  |
| CC(NC(=O)C1CCN(C(=O)c2ncn3c2COC(c2ccc(F)cc2)C3)CC1)c1ccccc1 (stereo not shown) [NCGC00449824-01] | -12.35% | 0.00% | 0.00% | 0.00% | 0.00% |  |  |  |  |
| CC(NC(=O)C1CCN(C(=O)c2ncn3c2COC(c2ccc(F)cc2)C3)CC1)c1ccc(F)cc1 (stereo not shown) [NCGC00449825-01] | 0.00% | 0.00% | 0.00% | 0.00% | 0.00% |  |  |  |  |
| O=C(NCCc1ccccc1)C1CCN(C(=O)c2ncn3c2COC(c2ccc(F)cc2)C3)CC1 (stereo not shown) [NCGC00449826-01] | -26.42% | 0.00% | 0.00% | 27.00% | 0.00% |  |  |  |  |
| CC(CNC(=O)C1CCN(C(=O)c2ncn3c2COC(c2ccc(F)cc2)C3)CC1)c1ccccc1 (stereo not shown) [NCGC00449827-01] | -13.06% | 0.00% | 0.00% | 15.49% | 0.00% |  |  |  |  |
| O=C(NCCCc1ccccc1)C1CCN(C(=O)c2ncn3c2COC(c2ccc(F)cc2)C3)CC1 (stereo not shown) [NCGC00449829-01] | -36.00% | 0.00% | -7.00% | 29.00% | 0.00% | 4.96 | 0.0111 mM |  |  |
| O=C(NCC1CCCCC1)C1CCN(C(=O)c2ncn3c2COC(c2ccc(F)cc2)C3)CC1 (stereo not shown) [NCGC00449830-01] | 0.00% | 0.00% | 0.00% | 0.00% | 0.00% |  |  |  |  |
| COCCNC(=O)C1CCN(C(=O)c2ncn3c2COC(c2ccc(F)cc2)C3)CC1 (stereo not shown) [NCGC00449834-01] | -35.83% | 0.00% | 0.00% | 67.53% | 0.00% |  |  | 4.91 | 0.0124 mM |
| O=C(NCC1CCCO1)C1CCN(C(=O)c2ncn3c2COC(c2ccc(F)cc2)C3)CC1 (stereo not shown) [NCGC00449835-01] | -45.21% | 0.00% | 0.00% | 54.34% | 0.00% |  |  | 5.01 | 0.00988 mM |
